Test results published in BigSolDB 2.1.

O=C(/C=C/C=C/c1ccc2c(c1)OCO2)N1CCCCC1
solubility (mole fraction)
Settings | 278.15 K | 283.15 K | 288.15 K | 293.15 K | 298.15 K | 303.15 K | 308.15 K | 313.15 K | 318.15 K
in acetone | 0.00485 | 0.00589 | 0.00706 | 0.0083 | 0.00973 | 0.0113 | 0.0129 | 0.0146 | 0.0166
in ethanol | 0.00413 | 0.00503 | 0.00607 | 0.00714 | 0.00827 | 0.00966 | 0.0111 | 0.0126 | 0.0143
in ethyl acetate | 0.00807 | 0.0104 | 0.0132 | 0.0161 | 0.0194 | 0.0232 | 0.0274 | 0.0321 | 0.0373
